Read-outs that look alike come from different tables or passages of the source. A value given as a limit tells only on which side of the number the result lay.

One data set has as its system SUM52 cells. Nature of the data set: Oxic and anoxic anti-proliferative activity of the prodrugs. The settings on record: for Hypoxic Cytotoxicity Ratio (HCR), SUM52: ratio of oxic and anoxic IC50.
The mark [1] stands for this setting: read-out: Cellular Anti-proliferative IC50, SUM52, Anoxic, 4 hours of anoxia, remainder of assay oxic.
The mark [2] stands for this setting: read-out: Cellular Anti-proliferative IC50, SUM52, Oxic, oxic conditions.

What is called melting point is the temperature, or range, at which the solid turns liquid. Broadly, the IC50 is the concentration that inhibits the measured activity by half. Consider `COc1cc(OC)c(Br)c(-c2cc3cnc(NC(C)C)cc3n(C3CCN(C(=O)/C=C/C[N+](C)(C)Cc4c([N+](=O)[O-])ncn4C)CC3)c2=O)c1Br.[Br-]` [Compound 216, (E)-4-(4-(3-(2,6-dibromo-3,5-dimethoxyphenyl)-7-(isopropylamino)-2-oxo-1,6-naphthyridin-1(2H)-yl)piperidin-1-yl)-N,N-dimethyl-N-((1-methyl-4-nitro-1H-imidazol-5-yl)methyl)-4-oxobut-2-en-1-aminium bromide], for which the melting point turned out to be 219 °C. In addition, in the data set on SUM52 cells, the “Hypoxic Cytotoxicity Ratio (HCR), SUM52” value was 59. In addition, in the data set with SUM52 cells (setting [1]), the 50% inhibitory concentration (IC50) worked out at 0.006 µM. In addition, the concentration for half-maximal inhibition (IC50) in the data set on SUM52 cells (setting [2]) was 0.346 µM.
The like results for `COc1cc(OC)cc(N2Cc3cnc(Nc4ccc(N5CCOCC5)cc4)nc3N(C3CCN(C(=O)/C=C/C[N+](C)(C)Cc4c([N+](=O)[O-])ncn4C)CC3)C2=O)c1.[Br-]` [Compound 220, (E)-4-(4-(3-(3,5-dimethoxyphenyl)-7-((4-morpholinophenyl)amino)-2-oxo-3,4-dihydropyrimido[4,5-d]pyrimidin-1(2H)-yl)piperidin-1-yl)-N,N-dimethyl-N-((1-methyl-4-nitro-1H-imidazol-5-yl)methyl)-4-oxobut-2-en-1-aminium bromide] were, in that order, 192 to 195 °C, 48, 0.036 µM and 1.72 µM.
`COc1cc(OC)c(Cl)c(N2Cc3cnc(Nc4ccc(N5CCOCC5)cc4)nc3N(C3CCN(C(=O)/C=C/C[N+](C)(C)Cc4c([N+](=O)[O-])ncn4C)CC3)C2=O)c1Cl.[Br-]` [Compound 218, (E)-4-(4-(3-(2,6-dichloro-3,5-dimethoxyphenyl)-7-((4-morpholinophenyl)amino)-2-oxo-3,4-dihydropyrimido[4,5-d]pyrimidin-1(2H)-yl)piperidin-1-yl)-N,N-dimethyl-N-((1-methyl-4-nitro-1H-imidazol-5-yl)methyl)-4-oxobut-2-en-1-aminium bromide] had a melting point of over 295 °C. Also, the “Hypoxic Cytotoxicity Ratio (HCR), SUM52” value in the data set with SUM52 cells is 4. Besides, the IC50 in the data set on SUM52 cells (setting [1]) was determined as 0.003 µM. In addition, the 50% inhibitory concentration (IC50) in the data set on SUM52 cells (setting [2]) came to 0.014 µM.
The like results for `COc1cc(OC)c(Cl)c(N2Cc3cnc(Nc4ccc(N5CCOCC5)cc4)nc3N(C3CCN(C(=O)/C=C/C[N+](C)(C)Cc4c([N+](=O)[O-])ncn4C)CC3)C2=O)c1.[Br-]` [Compound 219, (E)-4-(4-(3-(2-chloro-3,5-dimethoxyphenyl)-7-((4-morpholinophenyl)amino)-2-oxo-3,4-dihydropyrimido[4,5-d]pyrimidin-1(2H)-yl)piperidin-1-yl)-N,N-dimethyl-N-((1-methyl-4-nitro-1H-imidazol-5-yl)methyl)-4-oxobut-2-en-1-aminium bromide] were, in that order, 241 to 244 °C, 22, 0.002 µM and 0.052 µM.
Taken in the same sequence, the figures for `COc1cc(OC)c(Cl)c(N2Cc3cnc(NC4CCOCC4)nc3N(C3CCN(C(=O)/C=C/C[N+](C)(C)Cc4c([N+](=O)[O-])ncn4C)CC3)C2=O)c1Cl.O=C([O-])C(F)(F)F` [Compound 203, (E)-4-(4-(3-(2,6-dichloro-3,5-dimethoxyphenyl)-2-oxo-7-((tetrahydro-2H-pyran-4-yl)amino)-3,4-dihydropyrimido[4,5-d]pyrimidin-1(2H)-yl)piperidin-1-yl)-N,N-dimethyl-N-((1-methyl-4-nitro-1H-imidazol-5-yl)methyl)-4-oxobut-2-en-1-aminium 2,2,2-trifluoroacetate] were 157 to 160 °C, 26, 0.037 µM and 0.961 µM.

The values above are taken from patent US11192890B2, “FGFR kinase inhibitors and pharmaceutical uses” (AUCKLAND UNISERVICES LIMITED, priority 2017, dated 2021).
